According to ChEMBL document CHEMBL1127224, “Peptidomimetic inhibitors of human immunodeficiency virus protease (HIV-PR): Design, enzyme binding and selectivity, antiviral efficacy, and cell permeability properties” (Bioorg Med Chem Lett, 1993):
pIC50, pKi: −log10 of the molar value.

Columns and labels:
CV-1 [1] = test: Antiviral efficacy measured by a hybrid HIV-l/vaccinia virus infected monkey cell line (HIV- l/vVK-1 infected CV- 1) which produces HIV-1 gag-pol derived polyproteins; assay type: functional, cell-based, Human immunodeficiency virus 1; conditions: Chlorocebus aethiops
[2] = molecular target: Human immunodeficiency virus type 1 protease (Human immunodeficiency virus 1, UniProt Q72874); test: Evaluated for inhibitory activity against HIV-1 protease
CV-1 [3] = test: Antiviral efficacy measured by a hybrid HIV-l/vaccinia virus infected monkey cell line (HIV- l/vVK-1 infected CV- 1) which produces HIV-1 gag-pol derived polyproteins at 10 uM concentration; assay type: functional, Human immunodeficiency virus 1; conditions: Chlorocebus aethiops
Renin = molecular target: T1, Renin (Homo sapiens, UniProt P00797); test: Compound was evaluated for aspartyl protease inhibition selectivity relative to renin
T1 sequence (P00797 whole entry): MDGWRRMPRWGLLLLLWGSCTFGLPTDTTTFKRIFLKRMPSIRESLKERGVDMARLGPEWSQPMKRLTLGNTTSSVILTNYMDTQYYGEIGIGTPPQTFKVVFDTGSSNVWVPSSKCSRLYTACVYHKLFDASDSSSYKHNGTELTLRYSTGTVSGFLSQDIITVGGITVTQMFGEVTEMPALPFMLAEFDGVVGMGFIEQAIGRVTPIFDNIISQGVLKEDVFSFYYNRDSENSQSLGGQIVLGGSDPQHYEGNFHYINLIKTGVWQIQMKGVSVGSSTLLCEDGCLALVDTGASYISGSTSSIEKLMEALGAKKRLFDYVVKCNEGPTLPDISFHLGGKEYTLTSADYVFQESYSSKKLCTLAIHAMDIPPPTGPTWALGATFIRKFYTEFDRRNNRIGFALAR

Pepsin A = Pepsin A (Sus scrofa, UniProt P00791); test: Compound was evaluated for aspartyl protease inhibition selectivity relative to pepsin; set-up: species or system Homo sapiens
Cathepsin E = molecular target: T2, Cathepsin E (Homo sapiens, UniProt P14091); test: Compound was evaluated for aspartyl protease inhibition selectivity relative to Cathepsin E
T2 sequence (P14091 whole entry): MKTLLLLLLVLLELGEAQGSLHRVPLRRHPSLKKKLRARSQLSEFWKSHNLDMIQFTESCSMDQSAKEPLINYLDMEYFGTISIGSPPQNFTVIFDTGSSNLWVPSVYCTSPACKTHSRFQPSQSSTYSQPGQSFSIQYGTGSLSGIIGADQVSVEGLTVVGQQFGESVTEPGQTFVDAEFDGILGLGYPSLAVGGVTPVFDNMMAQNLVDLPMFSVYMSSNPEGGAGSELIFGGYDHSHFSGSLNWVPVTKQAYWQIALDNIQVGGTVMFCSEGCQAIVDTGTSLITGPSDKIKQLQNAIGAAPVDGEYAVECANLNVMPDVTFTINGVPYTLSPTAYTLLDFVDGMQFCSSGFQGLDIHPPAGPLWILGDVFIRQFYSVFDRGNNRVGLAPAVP

Cathepsin D = Cathepsin D (Homo sapiens, UniProt P07339); test: Compound was evaluated for aspartyl protease inhibition selectivity relative to Cathepsin D
Chain of Cathepsin D (P07339 65-162 limits assumed): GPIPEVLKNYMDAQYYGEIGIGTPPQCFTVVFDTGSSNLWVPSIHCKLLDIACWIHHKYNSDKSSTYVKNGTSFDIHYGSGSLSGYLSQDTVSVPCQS
Chain of Cathepsin D (P07339 169-412 limits assumed): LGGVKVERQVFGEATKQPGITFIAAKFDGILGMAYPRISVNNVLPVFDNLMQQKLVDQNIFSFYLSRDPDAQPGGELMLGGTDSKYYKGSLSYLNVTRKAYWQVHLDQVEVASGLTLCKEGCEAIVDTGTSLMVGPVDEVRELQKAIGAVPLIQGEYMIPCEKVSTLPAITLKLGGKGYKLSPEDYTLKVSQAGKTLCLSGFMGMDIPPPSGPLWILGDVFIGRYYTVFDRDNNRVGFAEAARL

Chain of Pepsin A (P00791 whole entry): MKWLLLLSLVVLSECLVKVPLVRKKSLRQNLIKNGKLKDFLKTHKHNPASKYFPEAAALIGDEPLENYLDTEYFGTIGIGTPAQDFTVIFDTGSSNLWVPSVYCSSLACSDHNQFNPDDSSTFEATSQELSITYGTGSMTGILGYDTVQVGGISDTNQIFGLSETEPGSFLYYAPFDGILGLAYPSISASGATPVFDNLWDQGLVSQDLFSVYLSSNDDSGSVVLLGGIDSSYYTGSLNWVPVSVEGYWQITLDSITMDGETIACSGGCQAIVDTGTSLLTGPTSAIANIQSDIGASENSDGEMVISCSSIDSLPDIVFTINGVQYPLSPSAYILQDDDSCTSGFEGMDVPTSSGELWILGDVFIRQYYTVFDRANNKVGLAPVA

| SMILES | pIC50 (CV-1 [1]) | pKi [2] | inhibition at 10 µM (CV-1 [3]) | pKi (Renin) | pKi (Pepsin A) | pKi (Cathepsin E) | pKi (Cathepsin D) |
| --- | --- | --- | --- | --- | --- | --- | --- |
| CC(C)[C@H](C[C@H](O)[C@H](CC1CCCCC1)NC(=O)C(CC(N)=O)NC(=O)c1ccc2ccccc2n1)C(=O)NCC(C)(C)C (some centres undefined) | 6.52 | 7.85 | 70% | – | – | – | – |
| CC[C@@H](C)[C@@H](NC(=O)[C@@H](C[C@H](O)[C@H](CC1CCCCC1)NC(C)=O)C(C)C)C(=O)NCc1ccccn1 | – | < 6.00 | 22% | – | – | – | – |
| CCC(C)[C@H](NC(=O)[C@@H](C[C@H](O)[C@H](CC1CCCCC1)NC(=O)[C@H](Cc1cnc[nH]1)NC(=O)OC(C)(C)C)C(C)C)C(=O)NCc1ccccn1 (some centres undefined) | 5.00 | 8.00 | 53% | – | – | – | – |
| CCC(C)[C@H](NC(=O)[C@@H](C[C@H](O)[C@H](CC1CCCCC1)NC(=O)[C@H](Cc1cn(C)cn1)NC(=O)COc1cccc2ccccc12)C(C)C)C(=O)NCc1ccccn1 (some centres undefined) | 6.30 | 7.52 | 85% | – | – | – | – |
| CCC(C)[C@H](NC(=O)[C@@H](C[C@H](O)[C@H](CC1CCCCC1)NC(=O)OC(C)(C)C)C(C)C)C(=O)NCc1ccccn1 (some centres undefined) | 6.52 | 8.10 | 100% | 5.92 | 6.48 | 7.05 | 7.00 |
| CCC(C)[C@H](NC(=O)[C@@H](C[C@H](O)[C@H](CC1CCCCC1)NC(=O)c1ccccn1)C(C)C)C(=O)NCc1ccccn1 (some centres undefined) | 6.52 | 8.10 | 100% | – | – | – | – |
| CC[C@H](C)[C@H](NC(=O)[C@@H](C[C@H](O)[C@@H](N)CC1CCCCC1)C(C)C)C(=O)NCc1ccccn1 | – | 6.10 | 0% | – | – | – | – |
| CCCCCC(=O)N[C@@H](CC1CCCCC1)[C@@H](O)C[C@H](C(=O)N[C@H](C(=O)NCc1ccccn1)C(C)CC)C(C)C (some centres undefined) | 5.52 | 7.33 | 67% | – | – | – | – |
| CCC(C)[C@H](NC(=O)[C@@H](C[C@H](O)[C@H](CC1CCCCC1)NC(=O)CC(C)(C)C)C(C)C)C(=O)NCc1ccccn1 (some centres undefined) | 5.52 | 7.12 | 75% | – | – | – | – |
| CCC(C)[C@H](NC(=O)[C@@H](C[C@H](O)[C@H](CC1CCCCC1)NC(=O)[C@H](CC(N)=O)NC(=O)COc1cccc2ccccc12)C(C)C)C(=O)NCc1ccccn1 (some centres undefined) | 6.52 | 8.40 | 93% | – | – | – | – |
| CCC(C)[C@H](NC(=O)[C@@H](C[C@H](O)[C@H](CC1CCCCC1)NC(=O)[C@@H](NC(=O)COc1cccc2ccccc12)C(C)C)C(C)C)C(=O)NCc1ccccn1 (some centres undefined) | 6.52 | 7.21 | 93% | – | – | – | – |
| CC[C@H](C)[C@H](NC(=O)[C@@H](C[C@H](O)[C@H](CC1CCCCC1)NC(C)=O)C(C)C)C(=O)NCc1ccccn1 | – | 8.10 | 50% | – | – | – | – |
| CCC(C)[C@H](NC(=O)[C@@H](C[C@H](O)[C@H](CC1CCCCC1)NC(=O)[C@H](CC(N)=O)NC(=O)c1ccc2ccccc2n1)C(C)C)C(=O)O (some centres undefined) | – | – | 0% | – | – | – | – |
| CC[C@H](C)[C@H](NC(=O)[C@@H](C[C@H](O)[C@H](CC1CCCCC1)NC(C)=O)C(C)C)C(=O)NCc1cccc[n+]1[O-] | – | 7.80 | 20% | – | – | – | – |
| CC[C@H](C)[C@H](NC(=O)[C@H](C(C)C)[C@@H](O)[C@H](O)[C@H](CC1CCCCC1)NC(=O)[C@H](Cc1c[nH]cn1)NC(=O)COc1cccc2ccccc12)C(=O)NCc1ccccn1 | 6.70 | > 9.00 | 100% | 8.70 | 6.58 | 6.85 | < 6.00 |
| CCC(C)[C@H](NC(=O)[C@@H](C[C@H](O)[C@H](CC1CCCCC1)NC(=O)COc1ccccc1)C(C)C)C(=O)NCc1ccccn1 (some centres undefined) | 5.52 | 7.21 | 90% | – | – | – | – |
| CCC(C)[C@H](NC(=O)[C@@H](C[C@H](O)[C@H](CC1CCCCC1)NC(=O)[C@H](Cc1c[nH]cn1)NC(=O)COc1cccc2ccccc12)C(C)C)C(=O)NCc1ccccn1 (some centres undefined) | 6.52 | 8.30 | 100% | 8.70 | 6.54 | 7.30 | 6.70 |
| CCC(C)[C@H](NC(=O)[C@@H](C[C@H](O)[C@H](CC1CCCCC1)NC(=O)[C@H](CC(N)=O)NC(=O)c1ccc2ccccc2n1)C(C)C)C(=O)NCc1ccccn1 (some centres undefined) | 6.52 | 8.05 | 97% | 6.67 | 7.92 | 8.52 | 8.70 |
